Results published in US20150141349A1, “Method and Composition for Alleviating Tumor Symptoms” (Angiogene Pharmaceuticals Ltd., priority 2012, published 2015).
“And” between values parts separate entries of the source, which are not always exact repeats. Equal entries are not always repeated.

Experiments:
[1] = test system: GH3 pituitary tumor cells; assay: Tumor necrosis in GH3 tumors (prolactinomas) after CA4P (H&E histology, image analysis); type: in vivo, rat
Method: (§1) Eighteen female Wistar Furth rats (Charles River, France), weighing approximately 130-140 g, were inoculated subcutaneously in the flanks with 1×10^6 GH3 pituitary tumor cells. Tumors were typically used for experimentation when they reached approximately 1 cm in diameter, or 300-1000 mm^3. Blood was taken from the tail vein of each rat 24 h before treatment with 100 mg/kg of vascular disrupting agent, CA4P, formulated in 20% of 5% aqueous sodium bicarbonate in 80% phosphate buffered saline. The CA4P was administered as a bolus injection through the tail vein. 24 h or 48 h after treatment a further blood sample was taken from the tail vein and the rats euthanized. Tumors were excised, fixed in formalin and stained with H&E for histology. Necrosis was determined by image analysis (Image J).

[2] = test system: GH3 pituitary tumor cells; assay: Prolactin and growth hormone (ELISA) in GH3 tumor-bearing rats treated with CA4P; type: in vivo, rat; design: tumor GH pre- / tumor GH post-: unit not given beside the values; conditions: for Growth Hormone tumor-derived: historical background 46 ng/ml subtracted; for Prolactin tumor-derived: historical basal level 26 ng/ml subtracted; for GH % decrease: tumor-derived GH
Method: as §1
Prolactin and growth hormone were measured using commercial ELISA's (SPI/BIO Bertin Pharma/Cayman kits sourced from Bioquote Limited, York, UK). Tumor-derived prolactin levels were calculated assuming a historical basal level of 26 ng/ml. […] Tumor-derived growth hormone levels were calculated by subtracting a historical value for background growth hormone of 46 ng/ml. […] All measurements for the control group were performed 24 hours after injection of saline.

[3] = test system: Pancreatic Endocrine Tumors; assay: Serum insulin (ELISA) in Pdx1-Cre:Men1floxed/floxed mice treated with CA4P; type: in vivo
Method: Eight Pdx1-Cre:Men1floxed/floxed mice (described in Shen et al. Cancer Res. 2009, 69(5):1858-66) were divided into treated group (n=4) and control group (n=4). In an ongoing experiment, the mice from the treated group and control group were injected i.p. daily with CA4P (100 mg/kg) and saline, respectively, for three days monthly. The mice underwent a 24 h fast prior to collecting whole blood via a retro-orbital bleeding technique weekly at pre- and post-treatment. Glucose levels were monitored by enzymatic colorimetric assay. All mice underwent a microPET/CT scan monthly. Anti-tumor activity was measured by standardized-uptake value (SUV) analysis. All mice were weighed three times per week as an indicator of toxicity.

[4] = test system: GH3 pituitary tumor cells; assay: Tumor necrosis in GH3 rat pituitary tumors after ZD6126 (H&E histology, image analysis); type: in vivo; conditions: individual rats; 24 h after 50 mg/kg ZD6126 bolus tail vein
Method: (§2) Four female Wistar Furth rats, weighing approximately 160 g, were inoculated subcutaneously in the flanks with GH3 pituitary tumor cells. Tumors were typically used for experimentation when they reached approximately 1000-3000 mm^3. Blood was taken from the tail vein of each rat 24 h before treatment with 50 mg/kg of vascular disrupting agent, ZD6126, formulated in 20% of 5% aqueous sodium bicarbonate in 80% phosphate buffered saline. The vascular disrupting agent was administered as a bolus injection through the tail vein. 24 h after treatment a further blood sample was taken from the tail vein and the rats euthanized. Tumors were excised, fixed in formalin and stained with H&E for histology. Necrosis was determined by image analysis (Image J). Blood samples were analyzed for prolactin and growth hormone at by ELISA using kits supplied by SPIbio.

[5] = test system: GH3 pituitary tumor cells; assay: Circulating growth hormone and prolactin (ELISA) in GH3 tumor-bearing rats treated with ZD6126; type: in vivo, rat; design: Growth Hormone pre / Growth Hormone post / Prolactin pre / Prolactin post: unit not given beside the values
Method: as §2
Since control animals had significant levels of both hormones (within the normal range) and since the VDA could not be expected to reduce normal host hormone production it might be reasonable to subtract a figure from each reading to allow for the persisting host-derived hormone. Although data on normal hormone levels were derived from a single control (non-tumor bearing) animal, the values are very much in agreement with those reported in the literature. Subtracting this value would give a rough estimate of the reduction in rats 1 and 2 of tumor-derived growth hormone of 72% and 40% and a reduction in tumor-derived prolactin of 65% and 33% respectively.

carcinoid metastases = conditions: compared with 55% for hepatic artery embolization; cited from earlier work
neuroendocrine tumor = conditions: prolonged treatment, in combination with octreotide (Yao et al. 2008); cited from earlier work
[6] = 24 h after 100 mg/kg CA4P, individual rats
[7] = 48 h after 100 mg/kg CA4P, individual rats
[8] = 24 h after 50 mg/kg ZD6126, individual rats, ±SD
[9] = baseline, blood 24 h before ZD6126 treatment, individual rats, ±SD
[10] = pre vs 24 h after 50 mg/kg ZD6126, individual rats
[11] = rats 1 and 2, rough estimate after subtracting value of tumor-free control

Molecule: COc1ccc(/C=C\c2cc(OC)c(OC)c(OC)c2)cc1OP(=O)(O)O [CA4P, combretastatin A-4 phosphate]
- % tumor necrosis ([1]; 24 h after 100 mg/kg CA4P, group mean): 43.7 ± 29.6%
- % tumor necrosis [1, 6]: 83% and 58% and 3% and 59% (2×)
- % tumor necrosis ([1]; 48 h after 100 mg/kg CA4P, group mean): 61.7 ± 27.4%
- % tumor necrosis [1, 7]: 77% and 30%
- Prolactin total ([2]; 24 h after 100 mg/kg CA4P bolus tail vein, n=6): 64.6 ± 19.1 ng/ml ± SD
- Growth Hormone tumor-derived ([2]; 24 h after 100 mg/kg CA4P, n=6): 29.1 ± 13.6 ng/ml ± SD
- Prolactin tumor-derived ([2]; 24 h after 100 mg/kg CA4P, n=6): 38.6 ± 19.1 ng/ml ± SD
- tumor GH post- [2, 6]: 15.8 and 29.1 and 48.4 and 19.2 and 42.4
- GH % decrease [2, 6]: 63.2% and 36.0% and 21.6% and 50.0% and 6.2%
- Growth Hormone total ([2]; 24 h after 100 mg/kg CA4P, n=6): 75.1 ± 13.6 ng/ml ± SD
- Growth Hormone tumor-derived ([2]; 48 h after 100 mg/kg CA4P, n=2): 20.8 ± 7.8 ng/ml ± SD
- Prolactin tumor-derived ([2]; 48 h after 100 mg/kg CA4P, n=2): 28.3 ± 20.2 ng/ml ± SD
- tumor GH post- [2, 7]: 15.3 and 26.3
- GH % decrease [2, 7]: 64.1% and 35.2%
- Growth Hormone total ([2]; 48 h after 100 mg/kg CA4P, n=2): 66.8 ± 7.8 ng/ml ± SD
- Prolactin total ([2]; 48 h after 100 mg/kg CA4P, n=2): 54.3 ± 20.2 ng/ml ± SD
- tumor GH pre- ([2]; baseline before CA4P, individual rats, tumor-derived growth hormone): 42.9 and 45.5 and 61.7 and 38.4 and 45.2 and 42.6 and 40.6
- total and tumor-derived growth hormone after treatment (in words) ([2]; p<0.03, one-tailed t-test): statistically lower amount
- total and tumor-derived prolactin after treatment (in words) ([2]; p<0.04, one-tailed T-test): statistically lower amount
- Serum Insulin ([3]; Day 0 (baseline), CA4P group n=4, P vs PBS 0.6720): 3.695 ± 0.669 µg/L
- Serum Insulin ([3]; Day 4, CA4P 100 mg/kg i.p. daily for three days, 24 h fast, P vs PBS 0.3699): 3.060 ± 1.037 µg/L
- Serum Insulin ([3]; Day 11, CA4P 100 mg/kg i.p. daily for three days, 24 h fast, P vs PBS 0.0350): 2.495 ± 0.8722 µg/L

Molecule: COc1cc2c(c(OC)c1OC)-c1ccc(OP(=O)(O)O)cc1[C@@H](NC(C)=O)CC2 [ZD6126]
- % necr. (tumor necrosis) [4]: 39% and 42% and little or no necrosis and 0%
- Growth Hormone post [5, 8]: 91 ± 7 and 102 ± 4 and 204 ± 14 and 171 ± 11
- Prolactin post [5, 8]: 90 ± 2 and 78 ± 3 and 129 ± 5 and 52 ± 1
- Growth Hormone pre [5, 9]: 214 ± 11 and 139 ± 8 and 193 ± 4 and 146 ± 4
- Prolactin pre [5, 9]: 211 ± 28 and 104 ± 3 and 134 ± 17 and 53 ± 3
- Growth Hormone Δ (percent reduction) [5, 10]: 57 and 26 and −5 and −16
- Prolactin Δ (percent reduction) [5, 10]: 57 and 24 and 4 and 1
- reduction in tumor-derived prolactin [5, 11]: ~65% and ~33%
- reduction of tumor-derived growth hormone [5, 11]: ~72% and ~40%

Molecule: CO[C@H]1C[C@@H]2CC[C@@H](C)[C@@](O)(O2)C(=O)C(=O)N2CCCC[C@H]2C(=O)O[C@H]([C@H](C)C[C@@H]2CC[C@@H](OCCO)[C@H](OC)C2)CC(=O)[C@H](C)/C=C(\C)[C@@H](O)[C@@H](OC)C(=O)[C@H](C)C[C@H](C)/C=C/C=C/C=C/1C [everolimus]
- response rate (Phase II trials) (carcinoid metastases): 13%

Molecule: COc1cc2ncnc(Nc3ccc(F)c(Cl)c3)c2cc1OCCCN1CCOCC1 [gefitinib]
- response rate (Phase II trials) (carcinoid metastases): 2%

Molecule: Cc1ccc(NC(=O)c2ccc(CN3CCN(C)CC3)cc2)cc1Nc1nccc(-c2cccnc2)n1 [imatinib]
- response rate (Phase II trials) (carcinoid metastases): 4%

Molecule: CNC(=O)c1cc(Oc2ccc(NC(=O)Nc3ccc(Cl)c(C(F)(F)F)c3)cc2)ccn1 [sorafenib]
- response rate (Phase II trials) (carcinoid metastases): 10%

Molecule: Clc1ccc(Nc2nnc(Cc3ccncc3)c3ccccc23)cc1 [valatinib]
- response rate (Phase II trials) (carcinoid metastases): 0%

Molecule: bevacizumab: anti-VEGF antibody
- neuroendocrine tumor patients achieving a meaningful reduction in urinary 5-HIAA (neuroendocrine tumor): 19%
- patients achieving a reduction in plasma levels of chromogranin A (neuroendocrine tumor): 6%
- response rate (Phase II trials) (carcinoid metastases): 18%
